According to patent US8604021B2, “Substituted arylamine compounds and methods of treatment” (priority 2005, dated 2013):
“Also recorded” adds a separate entry of the source.

Experiments:
D1 = D1 (Homo sapiens, UniProt P21728); test: Compound Binding Profiles: D1; conditions: read-out: D1 binding class
D4 = target: T1, D4 (Homo sapiens, UniProt P21917); test: Compound Binding Profiles: D4; conditions: read-out: D4 binding class
T1 sequence (P21917 1-419): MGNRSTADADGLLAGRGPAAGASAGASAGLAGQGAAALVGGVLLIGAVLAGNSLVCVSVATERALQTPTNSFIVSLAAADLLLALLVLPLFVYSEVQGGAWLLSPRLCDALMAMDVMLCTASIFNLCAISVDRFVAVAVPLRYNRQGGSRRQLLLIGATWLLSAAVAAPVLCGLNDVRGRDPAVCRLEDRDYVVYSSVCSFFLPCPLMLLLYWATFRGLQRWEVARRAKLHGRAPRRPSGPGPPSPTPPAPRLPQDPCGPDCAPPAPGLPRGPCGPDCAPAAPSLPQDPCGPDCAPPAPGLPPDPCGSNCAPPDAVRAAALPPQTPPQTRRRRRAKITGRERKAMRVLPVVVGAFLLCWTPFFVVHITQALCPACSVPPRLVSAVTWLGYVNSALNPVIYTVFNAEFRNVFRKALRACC

α1 = test: Compound Binding Profiles: α1; conditions: * = Estimated IC50
α2 = test: Compound Binding Profiles: α2; conditions: * = Estimated IC50
[1] = Oral pharmacokinetics in rodents; conditions: in vivo, oral administration 5 mg/kg
[2] = Novel object recognition test; assay type: in vivo, C57Bl/6J mice; conditions: for Memory index, Mean: 10 min test; for Exploration time, Diff of Means 10% DMSO vs. treatment: within Familiar; for Exploration time, Diff of Means treatment vs. 10% DMSO: within Novel
Source text: Male C57Bl/6J mice from Jackson Laboratories (Bar Harbor, Me.) were used. Mice were received at 6-weeks of age. Upon receipt, mice were assigned unique identification numbers (tail marked) and were group housed in polycarbonate cages with filter tops. All animals remained housed in groups of four during the remainder of the study. All mice were acclimated to the colony room for at least two weeks prior to testing and were subsequently tested at an average age of 8 weeks of age. During the period of acclimation, mice were examined on a regular basis, handled, and weighed to assure adequate health and suitability. Mice were maintained on a 12/12 light/dark cycle with the light on at 6:00 a.m. The room temperature was maintained between 20 and 23° C. with a relative humidity maintained between 30% and 70%. Chow and water were provided ad libitum for the duration of the study. In each test, animals were randomly assigned across treatment groups.
The pH at the 10 mg/kg was around 5.5.
Rolipram, also dissolved in 10% DMSO was only administered 20 min prior to training on Day 2.
On Day 1, mice were habituated to a circular open field environment (d=18 in, h=15 cm) for one hour in cage groups of four. Each Arena was constructed out of acrylic that was painted black to block reflection. On day 2, mice were placed back into the same arena for a training trial and allowed to explore a set of two identical objects placed equidistance apart from both each other and the arena walls. Individual mice were trained for a total of 15 minutes and then placed back into their home cages. On Day 3, mice were placed back into the same arena in the presence of both the familiar (previously explored) and a novel object. The spatial positions of the familiar and novel object (i.e. left-right sides) were counterbalanced between subjects. The difference in time spent exploring each object during the test trial was used as an index of object recognition and memory retention. Each animals test trial was recorded and these tapes were observed and scored after test completion. The first 10 min of each session was scored and object recognition was computed using the formula: (Time spent with novel object*100)/(Total Time exploring both objects). Tissue Harvest
Data were analyzed by analysis of variance (ANOVA) followed by post-hoc comparisons with Fisher Tests when appropriate. An effect was considered significant if p<0.05. Data are represented as the mean and standard error to the mean.

CYP3A4 = CYP3A4 (Homo sapiens, UniProt P08684); test: CYP inhibition CYP3A4
CYP2C9 = CYP2C9 (Homo sapiens, UniProt P11712); test: CYP inhibition CYP2C9
CYP2D6 = CYP2D6 (Homo sapiens, UniProt P10635); test: CYP inhibition CYP2D6
CYP2D6, sequence (P10635 whole entry): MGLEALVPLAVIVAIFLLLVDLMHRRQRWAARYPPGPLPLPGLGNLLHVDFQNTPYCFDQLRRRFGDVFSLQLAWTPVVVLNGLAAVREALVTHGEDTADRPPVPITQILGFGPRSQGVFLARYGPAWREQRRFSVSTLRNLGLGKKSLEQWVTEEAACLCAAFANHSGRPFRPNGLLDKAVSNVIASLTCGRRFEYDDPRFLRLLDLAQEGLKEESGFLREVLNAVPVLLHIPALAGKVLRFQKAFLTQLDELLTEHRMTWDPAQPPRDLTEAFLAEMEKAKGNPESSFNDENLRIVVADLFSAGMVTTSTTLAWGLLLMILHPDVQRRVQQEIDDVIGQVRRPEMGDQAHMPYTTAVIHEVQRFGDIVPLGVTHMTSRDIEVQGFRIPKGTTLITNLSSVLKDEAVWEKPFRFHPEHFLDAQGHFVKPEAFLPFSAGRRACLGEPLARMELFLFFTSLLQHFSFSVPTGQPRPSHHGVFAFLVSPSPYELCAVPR

CYP2C9, sequence (P11712 whole entry): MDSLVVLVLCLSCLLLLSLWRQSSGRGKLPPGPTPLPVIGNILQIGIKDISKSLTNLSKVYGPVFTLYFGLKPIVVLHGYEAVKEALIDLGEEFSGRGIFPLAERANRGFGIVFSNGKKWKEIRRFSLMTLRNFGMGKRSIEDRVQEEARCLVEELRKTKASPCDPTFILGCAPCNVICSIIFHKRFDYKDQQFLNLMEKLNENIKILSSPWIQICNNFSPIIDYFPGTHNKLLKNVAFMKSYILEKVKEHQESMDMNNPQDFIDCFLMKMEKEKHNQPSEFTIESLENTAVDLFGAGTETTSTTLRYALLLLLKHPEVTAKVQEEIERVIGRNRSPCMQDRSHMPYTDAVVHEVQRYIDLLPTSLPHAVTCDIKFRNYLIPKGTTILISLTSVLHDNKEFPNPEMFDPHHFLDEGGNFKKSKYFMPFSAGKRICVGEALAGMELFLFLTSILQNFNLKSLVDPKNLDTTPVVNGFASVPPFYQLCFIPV
D1, sequence (P21728 whole entry): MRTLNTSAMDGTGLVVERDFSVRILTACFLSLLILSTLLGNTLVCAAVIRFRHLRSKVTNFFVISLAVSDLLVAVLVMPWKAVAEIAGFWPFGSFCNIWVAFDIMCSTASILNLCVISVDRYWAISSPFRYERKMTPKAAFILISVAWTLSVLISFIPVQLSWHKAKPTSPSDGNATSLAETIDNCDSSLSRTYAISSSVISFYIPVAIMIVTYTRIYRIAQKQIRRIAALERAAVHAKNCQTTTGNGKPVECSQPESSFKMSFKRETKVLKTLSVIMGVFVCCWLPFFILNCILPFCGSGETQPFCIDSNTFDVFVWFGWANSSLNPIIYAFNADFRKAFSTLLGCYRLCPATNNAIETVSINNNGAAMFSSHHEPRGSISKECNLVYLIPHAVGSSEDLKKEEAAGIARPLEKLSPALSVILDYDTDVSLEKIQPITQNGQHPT
CYP3A4, sequence (P08684 whole entry): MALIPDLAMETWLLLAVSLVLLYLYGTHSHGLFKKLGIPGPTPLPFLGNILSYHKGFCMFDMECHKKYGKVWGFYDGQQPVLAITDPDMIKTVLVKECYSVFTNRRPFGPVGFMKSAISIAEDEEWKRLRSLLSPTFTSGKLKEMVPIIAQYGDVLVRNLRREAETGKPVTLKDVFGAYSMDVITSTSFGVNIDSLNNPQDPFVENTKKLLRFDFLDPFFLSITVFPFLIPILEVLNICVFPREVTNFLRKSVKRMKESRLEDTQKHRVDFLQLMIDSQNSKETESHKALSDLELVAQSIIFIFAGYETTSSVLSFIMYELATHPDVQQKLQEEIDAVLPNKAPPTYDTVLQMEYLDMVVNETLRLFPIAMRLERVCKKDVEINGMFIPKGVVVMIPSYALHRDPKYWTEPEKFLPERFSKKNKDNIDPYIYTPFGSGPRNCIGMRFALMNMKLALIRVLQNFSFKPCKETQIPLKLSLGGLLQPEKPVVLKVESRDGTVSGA

COc1cc(Cl)cc(C(C)Nc2cc(N3CCNCC3)ccc2S(C)(=O)=O)c1OC.Cl (centres unmarked) [Compound A, [1-(5-Chloro-2,3-dimethoxy-phenyl)-ethyl]-(2-methanesulfonyl-5-piperazin-1-yl-phenyl)-amine hydrochloride]
Ki (D1): 0.1 to 1 µM | Ki (D4): 0.1 to 1 µM | IC50 (α1): 24 µM | IC50 (α2): 23 µM | bioavailability [1]: 38% | half-life [1]: 1.5 h | Exploration time, Diff of Means Novel vs. Familiar ([2]; 1 mg/kg): 14.456 | Memory index, Mean Diff. Vehicle versus treatment (Fisher's PLSD) ([2]; 1 mg/kg): −4.573 | Memory index, Mean ([2]; 1 mg/kg i.p.): 61.179 | Exploration time, Mean ([2]; 1 mg/kg, Familiar Object): 24.810 | Exploration time, Mean ([2]; 1 mg/kg, Novel Object): 39.266 | Exploration time, Diff of Means Novel vs. Familiar ([2]; 3 mg/kg): 23.871 | effect on recognition index / object recognition compared to vehicle ([2]; 3 mg/kg and 10 mg/kg, hydrochloride): significantly increased the recognition index; also recorded: significant, positive effect on object recognition | Memory index, Mean ([2]; 3 mg/kg i.p.): 68.946 | Exploration time, Mean ([2]; 3 mg/kg, Familiar Object): 17.506 | Exploration time, Mean ([2]; 3 mg/kg, Novel Object): 41.377 | Exploration time, Diff of Means Novel vs. Familiar ([2]; 10 mg/kg): 18.878 | Memory index, Mean Diff. Vehicle versus treatment (Fisher's PLSD) ([2]; 10 mg/kg): −9.784 | Memory index, Mean ([2]; 10 mg/kg i.p.): 66.391 | Exploration time, Mean ([2]; 10 mg/kg, Familiar Object): 16.153 | Exploration time, Mean ([2]; 10 mg/kg, Novel Object): 35.031 | time exploring novel object versus familiar object ([2]; 1, 3, and 10 mg/kg): spent more time exploring novel object than the familiar object | Exploration time, Diff of Means 10% DMSO vs. treatment ([2]; 1 mg/kg): 0.831 | Exploration time, Diff of Means 10% DMSO vs. treatment ([2]; 3 mg/kg): 6.473 | Exploration time, Diff of Means 10% DMSO vs. treatment ([2]; 10 mg/kg): 7.826 | Exploration time, Diff of Means treatment vs. 10% DMSO ([2]; 1 mg/kg): 8.282 | Exploration time, Diff of Means treatment vs. 10% DMSO ([2]; 3 mg/kg): 10.393 | Exploration time, Diff of Means treatment vs. 10% DMSO ([2]; 10 mg/kg): 4.047 | stability (HLM) (Stability in HLM): > 90 min | IC50 (CYP3A4): > 7.5 µM | IC50 (CYP2C9): > 7.5 µM | IC50 (CYP2D6): 7.81 µM
